Reference: US11608313B2, “Adamantylmethylamine derivative and use thereof as pharmaceutical” (TOHOKU UNIVERSITY, priority 2017, dated 2023)

Experiments:
[1] = tested on: amyloid-β (Aβ); test: Aβ aggregation in brain slices of APP23 mice (6E10 and thioflavin staining); format: in vivo; conditions: APP23 mice 14 month-old, chronic oral treatment for 2 months, 1 mg/kg
Experimental: The amyloid-β (Aβ) hypothesis regarding the pathogenesis of Alzheimer's disease has still been of great importance. It has been confirmed by immunostaining that Aβ aggregation occurs in APP23 mice (14 month-old). 50 μm brain slices were prepared from each of WT (control) and APP23 mice, and stained with 6E10 (anti-Aβ antibody, produced by Abcam) and thioflavin. The other conditions were in line with conventional immunostaining methods. […] Aβ aggregation was suppressed by chronic treatment with TP-014 (chronic oral treatment for 2 months (1 mg/kg)).

[2] = tested on: Kir6.2 channel-deficient mice; test: Behavioral tests and LTP evaluation in Kir6.2 channel-deficient mice; format: in vivo; conditions: Kir6.2-deficient mice, chronic treatment two months
Experimental: In order to confirm that TP-014 acts to inhibit Kir6.2 channels, Kir6.2 channel-deficient mice were analyzed by the same behavioral tests as in Test Example 4 (FIGS. 8-1 and 8-2: Y-maze test; FIG. 8-3: new object recognition test; FIG. 8-4: fear conditioning test; FIGS. 8-5 to FIG. 8-7: LTP improvement evaluation; n=5 per group) to identify the action site of TP-014. The results shown in FIGS. 8-1 to 8-7 confirmed that cognitive function impairment was induced in the Kir6.2-deficient mice. […] The analysis methods were the same as in Test Examples 4 to 7. Kir6.2-deficient mice were obtained from Professor Susumu Seino, School of Medicine of Kobe University (Miki T., et al., Proc. Natl. Acad. Sci. U.S.A. 1998, 95, 10402-10406).

[3] = tested on: OBX mice; test: Tail-suspension test and forced swim test in OBX mice (depression model); format: in vivo; conditions: chronic oral treatment for 2 weeks, 1 mg/kg
Experimental: OBX mice were used as a depression model to determine the effect of TP-014 (chronic oral treatment for 2 weeks (1 mg/kg)) to ameliorate a depression-like symptom. OBX mice are reported to show a decline in cognitive function, but have originally been established as a depression model. Depression analysis was done by tail-suspension test and forced swim test. In the tail-suspension test, mice are hung upside-down by their tail. If the hung mice are affected by depression, they show a longer immobility time. The immobility time of normal mice is shorter since they move actively when hung. In the forced swim test, mice are forced to swim in a beaker filled with water. Depression mice neither swim nor move (just float). The time (immobility time(s)) for which mice stay still in such a way is measured.
The same model mice were orally treated with a single dose of each of the test compounds (1 mg/kg), and analyzed after 1 hour by tail-suspension test and forced swim test. The results are shown in FIGS. 22-1 (tail-suspension test) and 22-2 (forced swim test).

[4] = tested on: APP23 mice; test: Electrophysiological test of long-term potentiation (LTP) in hippocampal slices of APP23 mice; format: in vivo; conditions: APP23 mice chronically treated
[5] = tested on: Kir6.1-deficient mice treated with corticosterone; test: Anxiety-related behavioral tests in corticosterone-treated Kir6.1-deficient mice; format: in vivo; conditions: TP-014 treatment 2 weeks
Experimental: Wild-type mice (C57BL/6J, Japan SLC, two month-old) treated with corticosterone (at a dose of 5 mg/kg once a day for 2 weeks) and Kir6.1-deficient mice treated with corticosterone were used as disease models showing anxiety-like symptoms, to perform five behavioral tests regarding anxiety-related behaviors. The Kir6.1-deficient mice were obtained from Professor Susumu Seino, School of Medicine of Kobe University (Miki T., et al., Nature Medicine 2002, 8, 466-472).
The results of all the tests described above confirmed that chronic treatment with TP-014 (for 2 weeks) ameliorates exacerbated anxiety-like symptoms.

[6] = tested on: Kir6.2 channel-overexpressing cells; test: Calcium imaging in Kir6.2 channel-overexpressing cells; format: cell-based
Experimental: The same Kir6.2 channel-overexpressing cells as used in Test Example 1 were used to measure, by calcium imaging, the levels of calcium entering the cells after TP-014 treatment. The calcium imaging is a method in which cultured nerve cells are treated with a culture medium supplemented with a calcium fluorescent dye (Fura2, produced by Dojindo Laboratories) to a concentration of 4 μM, and measured for the levels of calcium based on fluorescence intensity. The imaging was carried out using an imaging apparatus (LAMBDA 10-2, produced by Sutter Instrument) in accordance with the attached manual.

[7] = tested on: APP23 mice; test: Fear conditioning test in APP23 mice; format: in vivo; conditions: treated for two months
Excerpt: The fear conditioning test is an analysis method that takes advantage of the characteristic preference of mice for a dark place over a bright place. On day 1, a mouse is placed in a bright place. The mouse, which prefers darkness, enters a dark place (dark box), but then electrical simulation is delivered to the mouse. The mouse is surprised, returns to the bright place, and never enters the dark place. On day 2, the mouse is placed again in the bright place (the same place as on day 1) and observed for 5 minutes to see whether the mouse enters a dark place. If the mouse immediately enters the dark place, it is determined that the mouse experiences a decline in fear memory. “Latency” refers to the number of seconds until the mouse placed in the bright place on day 2 enters a dark place.

[8] = tested on: APP23 mice; test: Y-maze test in APP23 mice; format: in vivo; conditions: 1 mg/kg orally once a day for two months
Experimental: FIGS. 4-1 to 4-4 show the results of behavioral analyses. FIGS. 4-1 and 4-2 show the results of analysis of attentional function in wild-type mice (C57BL/6J, Japan SLC) v.s. APP23 mice (n=5 per group) by conventional Y-maze test. […] In the Y-maze test, mice are allowed to freely walk between three arms for 8 minutes. Here, the different arms are designated as A, B and C. A mouse positioned in arm A can move to arm B or C. If the mouse moves to arm B, then the mouse may move to arm C. Such a mouse moving sequentially between arms A, B and C is regarded as a mouse giving correct answer. […] The arms to which a mouse move are recorded in the order they are chosen by the mouse, and the number of times that a mouse moves between three arms within a specified time is counted and regarded as “total arm entries”. Further, the number of correct-answers (the number of times that a mouse moving sequentially between three different arms) is counted and regarded as the number of alternation behaviors (“No. of alternations”). The percentage of “No. of alternations” relative to the number obtained by subtracting 2 from “total arm entries” is expressed as percent alternation (%) which serves as an index for normal alternation behavior (correct answer rate in spatial working memory). […]

[9] = tested on: Alzheimer's disease model mice (APP23 mice); test: Cognitive function in Alzheimer's disease model mice (Test Example 4); format: in vivo; conditions: APP23 mice 12 month-old, 1 mg/kg orally once a day for two months
Excerpt: The test compound was orally administered in a dissolved state in a 0.5% aqueous solution of carboxymethyl cellulose (vehicle) (the same applies hereunder).

With `O=C(N[C@@H](c1ccccc1)[C@H]1[C@H]2C[C@@H]3C[C@](Cl)(C2)C[C@@]1(OC(=O)C(F)(F)F)C3)C(F)(F)F` [TP-014, (1S,2R,3S,5S,7S)-5-chloro-2-((R)-phenyl(2,2,2-trifluoroacetamido)methyl)adamantan-1-yl 2,2,2-trifluoroacetate] the Aβ aggregation [1] was “suppressed”, the “memory impairment and LTP attenuation” value [2] was “not improved” and the “immobility time (tail-suspension test and forced swim test)” value [3] was “improved”. For the same molecule, the “LTP (percent increase in the excitability of nerve cells)” value [4] was “improved”, the anxiety-like symptoms [5] was “no ameliorating effect was observed” and the intracellular calcium levels ([6]; 1-100 nM, 4 minutes after treatment, Kir6.2 channel-overexpressing cells) was “significantly increased”. For the same molecule, the “potency to enhance calcium levels compared with memantine” value ([6]; TP-014 1-100 nM vs memantine 100 nM) was “more potent to enhance calcium levels than memantine”, the “fear memory (latency, fear conditioning test)” value [7] was “improvement in fear memory” and the “attentional function (Y-maze test, percent alternation)” value [8] was “significantly enhanced”. The “cognitive function enhancing effect” value [9] was “significant cognitive function enhancing effect”.
